Measurements as given in ChEMBL document CHEMBL1201862, “PubChem BioAssay data set” (2004).
Active and inactive are the calls of the source.

Experiments:
[1] = system: BJ; test: BJ-TERT-LT-ST fibroblast viability loss – cell-based, RAS-independent, luminescence, dose response (AID 1935); assay type: functional; conditions: Homo sapiens;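 note: BJ fibroblasts immortalized with TERT plus LT and ST oncogenes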
[2] = molecular target: Type-1 angiotensin II receptor (Homo sapiens, UniProt P30556); test: antagonism of angiotensin II type 1 receptor – cell-based, uHTS hits, selectivity assay for APJ receptor antagonist project, dose response (AID 463214); assay type: functional;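 note: antagonist potency against angiotensin II stimulated AT1 response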
[3] = molecular target: Heat shock protein HSP 90-alpha (Homo sapiens, UniProt P07900); assay type: functional, organism-based
[4] = molecular target: T1, Beta-galactosidase (Escherichia coli, UniProt Q8VNN2); test: PubChem AID 485352; assay type: functional
[5] = molecular target: Beta Lactamase (Pseudomonas aeruginosa, UniProt Q932Y6); test: BLA reporter interference, concentration series – BLA reporter cells, FRET fluorescence, artefact control for TLR9-MyD88 binding inhibitor project, dose response (AID 588341); assay type: cell-based;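 note: cell based assay in CHO-K1 cells stably expressing beta-lactamase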
[6] = DRD fibroblast viability loss – cell-based, non-viral oncogenic, luminescence, dose response (AID 1934); assay type: functional; conditions: Homo sapiens
[7] = system: BJ; test: cells; assay type: functional, cell-based; conditions: Homo sapiens
[8] = molecular target: T2, Sphingosine 1-phosphate receptor 4 (Homo sapiens, UniProt O95977); test: Late stage fluorescence dose response cell-based screening assay for antagonists of the Sphingosine 1-Phosphate Receptor 4 (S1P4). [Related pubchem assays: 1524 (Confirmation screen (S1P4 antagonists).), 1510 (Primary screen (S1P4 antagonists).), 1853 (Summary AID (S1P4 antagonists).), 1692 (Dose response screen (S1P4 antagonists).)]; assay type: functional
T2 sequence (O95977 whole entry): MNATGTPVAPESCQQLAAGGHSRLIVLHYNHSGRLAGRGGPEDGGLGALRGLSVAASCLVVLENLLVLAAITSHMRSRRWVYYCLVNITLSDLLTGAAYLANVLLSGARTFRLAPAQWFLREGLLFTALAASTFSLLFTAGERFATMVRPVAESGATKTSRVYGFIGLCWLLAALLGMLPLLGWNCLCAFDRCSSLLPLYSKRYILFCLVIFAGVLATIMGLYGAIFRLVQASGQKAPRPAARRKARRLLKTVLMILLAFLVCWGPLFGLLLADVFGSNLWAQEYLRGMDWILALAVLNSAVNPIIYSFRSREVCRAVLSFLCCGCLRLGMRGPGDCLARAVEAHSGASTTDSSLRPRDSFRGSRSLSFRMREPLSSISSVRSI

[9] = system: BJ; test: BJ-TERT fibroblast viability loss – cell-based, RAS-independent, luminescence, dose response (AID 1933); assay type: functional; conditions: Homo sapiens
[10] = system: CHO; test: CHO cell viability loss, potency – luminescence, cytotoxicity control for TLR9-MyD88 binding inhibitor project, dose response (AID 588339); assay type: functional, cell-based, hamster; conditions: Cricetulus griseus;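 note: CHO cells stably coexpressing TLR9 and MyD88 fusions from primary screen; compound exposure lasted 48 hours before viability readout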
[11] = system: INS1; test: INS-1E survival protection against cytokine death – cell-based, luminescence, retest, dose response (AID 449756); assay type: functional; conditions: Rattus norvegicus;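 note: cell death triggered by IL-1 beta plus TNF-alpha plus IFN-gamma mixture; protective hits raise ATP signal compared with cytokine alone wells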
[12] = molecular target: T3, Heat shock factor protein 1 (Mus musculus, UniProt P38532); test: decrease of HSF1-responsive luciferase luminescence – cell-based, NIH3T3, dose retest, confirmation (AID 2382); assay type: functional;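 note: NIH3T3 fibroblasts with HSF1-driven luciferase reporter stressed by proteasome inhibitor MG132; luminescence from HSF1-driven luciferase expression after 8 hours of MG132 stress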
T3 sequence (P38532 whole entry): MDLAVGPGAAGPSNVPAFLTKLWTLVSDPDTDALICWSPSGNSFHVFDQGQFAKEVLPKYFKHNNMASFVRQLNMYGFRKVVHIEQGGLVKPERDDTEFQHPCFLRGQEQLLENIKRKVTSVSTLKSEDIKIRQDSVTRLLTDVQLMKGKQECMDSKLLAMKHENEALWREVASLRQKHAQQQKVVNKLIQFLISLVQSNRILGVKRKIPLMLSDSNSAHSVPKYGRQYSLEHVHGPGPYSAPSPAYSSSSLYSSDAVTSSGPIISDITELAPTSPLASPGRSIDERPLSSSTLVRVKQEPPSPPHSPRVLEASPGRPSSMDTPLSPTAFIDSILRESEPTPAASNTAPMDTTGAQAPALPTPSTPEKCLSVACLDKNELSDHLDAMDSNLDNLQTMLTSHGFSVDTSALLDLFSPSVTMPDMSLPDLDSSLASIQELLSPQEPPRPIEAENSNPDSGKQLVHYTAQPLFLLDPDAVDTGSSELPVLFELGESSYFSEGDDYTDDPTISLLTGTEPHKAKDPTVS

[13] = molecular target: T2, Sphingosine 1-phosphate receptor 4; test: Fluorescence dose response cell-based high throughput screening assay for antagonists of the Sphingosine 1-Phosphate Receptor 4 (S1P4). [Related pubchem assays: 1524 (Confirmation in triplicates.), 1510 (Primary screen.)]; assay type: functional
[14] = molecular target: Sphingosine 1-phosphate receptor 1 (Homo sapiens, UniProt P21453); assay type: functional;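 note: Tango beta-arrestin reporter U2OS cells stimulated with S1P near its EC80; inhibitor potency meaning antagonism of receptor activation by the natural agonist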
[15] = system: Streptococcus sp. 'group A'; test: Streptococcus pyogenes SK(-)GAS viability under kanamycin – luminescence, BacTiterGlo, confirmation, counter-screen for streptokinase expression inhibitor project, dose response (AID 1900); assay type: functional, organism-based
[16] = system: HEK293; test: cells; assay type: functional, cell-based; conditions: Homo sapiens
[17] = system: HEK293; test: cells; assay type: functional, cell-based; conditions: Homo sapiens; remark: listed apart in the source
[18] = molecular target: Nonstructural protein 1 (Influenza A virus, UniProt Q194T2); assay type: functional, Influenza A virus (A/California/07/2009(H1N1))
[19] = cells; assay type: functional, cell-based
[20] = molecular target: C-C chemokine receptor type 6 (Homo sapiens, UniProt P51684); test: antagonism of CCR6 beta-arrestin recruitment – cell-based, luminescent beta-arrestin readout, dose response (AID 504728); assay type: functional
[21] = system: Streptococcus; test: GAS UMAA2166 growth inhibition – luminescence, BacTiterGlo, counter-screen for streptokinase expression inhibitor project, dose response (AID 1915); assay type: functional, organism-based;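 note: potency for reduction of bacterial viability or growth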
[22] = system: A-375; test: MITF: Counter assay: A375 proliferation Measured in Cell-Based System Using Plate Reader - 2084-03_Inhibitor_Dose_DryPowder_Activity. [Related pubchem assays (depositor defined):AID488944]; assay type: functional; conditions: Homo sapiens
[23] = cells; assay type: functional, cell-based; remark: listed apart in the source
[24] = cells; assay type: functional
[25] = molecular target: Nucleotide-binding oligomerization domain-containing protein 2 (Homo sapiens, UniProt Q9HC29); test: inhibition of NOD2-driven NF-kB reporter – cell-based, luminescence, uHTS, HEK293 (AID 1566); assay type: functional
[26] = molecular target: T1, Beta-galactosidase; test: detection-enzyme interference by beta-gal modulators – biochemical, E. coli enzyme, set 3, artefact control for CCR6 antagonist project, dose response (AID 504712); assay type: functional
[27] = system: HEK293; test: inhibition of NOD1-driven NF-kB reporter – cell-based, luminescence, uHTS, primary screen (AID 1578); assay type: functional; conditions: Homo sapiens
[28] = HepG2 cell cytotoxicity, dose response, cytotoxicity control for non-replicating M. tuberculosis project (AID 489018); assay type: functional; conditions: Mycobacterium tuberculosis
[29] = NIH3T3 cell viability loss – ATP luminescence, mouse fibroblasts, counter-screen, dose response (AID 2010); assay type: functional, cell-based;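 note: cells exposed to compound for about 90 hours before reading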
[30] = system: HEK293; test: cells; assay type: functional, cell-based; conditions: Homo sapiens; remark: listed apart in the source
[31] = system: HEK293; test: NOD2 signaling inhibitors in MDP-stimulated cells, cell-based, uHTS, luminescence (AID 2001); assay type: functional; conditions: Homo sapiens
[32] = THP-1 cell cytotoxicity, dose response, cytotoxicity control for non-replicating M. tuberculosis project (AID 489025); assay type: functional
[33] = molecular target: T4, Microphthalmia-associated transcription factor (Homo sapiens, UniProt O75030); test: reducers of TRPM1 reporter luminescence, concentration series – cell-based, SK-MEL-5, cherry-picked, set 3, MITF inhibitor project, dose response (AID 493073); assay type: functional;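 note: SK-MEL-5 melanoma cells with luciferase driven by the MITF target TRPM1 promoter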
T4 sequence (O75030 whole entry): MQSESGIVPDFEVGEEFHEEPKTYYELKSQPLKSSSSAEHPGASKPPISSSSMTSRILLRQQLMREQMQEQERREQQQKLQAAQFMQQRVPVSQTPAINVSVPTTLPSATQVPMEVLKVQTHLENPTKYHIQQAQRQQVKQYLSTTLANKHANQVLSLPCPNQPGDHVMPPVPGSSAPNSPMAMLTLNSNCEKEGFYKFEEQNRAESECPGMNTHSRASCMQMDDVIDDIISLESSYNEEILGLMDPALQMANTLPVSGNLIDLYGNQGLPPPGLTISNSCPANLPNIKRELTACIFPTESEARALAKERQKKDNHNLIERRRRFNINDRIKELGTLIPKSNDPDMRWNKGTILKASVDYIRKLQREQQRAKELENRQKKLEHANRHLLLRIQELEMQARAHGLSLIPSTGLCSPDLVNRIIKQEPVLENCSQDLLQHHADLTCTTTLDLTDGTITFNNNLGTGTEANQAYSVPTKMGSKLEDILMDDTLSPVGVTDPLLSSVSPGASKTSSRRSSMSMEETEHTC

[34] = molecular target: T5, Streptokinase A (Streptococcus pyogenes serotype M1, UniProt P10520); test: viability-normalized secreted streptokinase activity reduction – plasminogen activation absorbance, OD405, dose response (AID 1914); assay type: functional, Streptococcus pyogenes M1 GAS;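 note: secreted streptokinase activity via plasminogen activation per viability signal from cell pellet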
T5 sequence (P10520 whole entry): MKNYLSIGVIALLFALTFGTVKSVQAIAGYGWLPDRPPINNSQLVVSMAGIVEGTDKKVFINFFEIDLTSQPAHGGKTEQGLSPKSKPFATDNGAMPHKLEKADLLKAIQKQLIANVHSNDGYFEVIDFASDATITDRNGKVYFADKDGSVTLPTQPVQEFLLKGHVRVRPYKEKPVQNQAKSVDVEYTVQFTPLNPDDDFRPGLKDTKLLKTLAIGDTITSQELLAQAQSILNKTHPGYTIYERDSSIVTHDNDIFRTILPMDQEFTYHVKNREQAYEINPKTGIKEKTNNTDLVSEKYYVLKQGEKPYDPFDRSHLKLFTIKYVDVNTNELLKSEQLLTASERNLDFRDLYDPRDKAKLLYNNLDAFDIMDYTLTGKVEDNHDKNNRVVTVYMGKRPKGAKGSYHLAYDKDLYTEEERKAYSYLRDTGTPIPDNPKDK

[35] = Trypanosoma cruzi growth suppression in host cells – NIH3T3 host cells, beta-gal luminescence, confirmation (AID 2044); assay type: functional, cell-based;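 note: intracellular parasites grown in NIH/3T3 mouse fibroblasts as host cells; luminescent beta-galactosidase reporter signal from transgenic T. cruzi replicating inside host cells; inhibitors lower the luminescence signal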
[36] = Vero E6 cell cytotoxicity, dose response, cytotoxicity control for non-replicating M. tuberculosis project, secondary assay (AID 492998); assay type: functional, VeroE6; conditions: Vero C1008

T1 sequence (Q8VNN2 whole entry): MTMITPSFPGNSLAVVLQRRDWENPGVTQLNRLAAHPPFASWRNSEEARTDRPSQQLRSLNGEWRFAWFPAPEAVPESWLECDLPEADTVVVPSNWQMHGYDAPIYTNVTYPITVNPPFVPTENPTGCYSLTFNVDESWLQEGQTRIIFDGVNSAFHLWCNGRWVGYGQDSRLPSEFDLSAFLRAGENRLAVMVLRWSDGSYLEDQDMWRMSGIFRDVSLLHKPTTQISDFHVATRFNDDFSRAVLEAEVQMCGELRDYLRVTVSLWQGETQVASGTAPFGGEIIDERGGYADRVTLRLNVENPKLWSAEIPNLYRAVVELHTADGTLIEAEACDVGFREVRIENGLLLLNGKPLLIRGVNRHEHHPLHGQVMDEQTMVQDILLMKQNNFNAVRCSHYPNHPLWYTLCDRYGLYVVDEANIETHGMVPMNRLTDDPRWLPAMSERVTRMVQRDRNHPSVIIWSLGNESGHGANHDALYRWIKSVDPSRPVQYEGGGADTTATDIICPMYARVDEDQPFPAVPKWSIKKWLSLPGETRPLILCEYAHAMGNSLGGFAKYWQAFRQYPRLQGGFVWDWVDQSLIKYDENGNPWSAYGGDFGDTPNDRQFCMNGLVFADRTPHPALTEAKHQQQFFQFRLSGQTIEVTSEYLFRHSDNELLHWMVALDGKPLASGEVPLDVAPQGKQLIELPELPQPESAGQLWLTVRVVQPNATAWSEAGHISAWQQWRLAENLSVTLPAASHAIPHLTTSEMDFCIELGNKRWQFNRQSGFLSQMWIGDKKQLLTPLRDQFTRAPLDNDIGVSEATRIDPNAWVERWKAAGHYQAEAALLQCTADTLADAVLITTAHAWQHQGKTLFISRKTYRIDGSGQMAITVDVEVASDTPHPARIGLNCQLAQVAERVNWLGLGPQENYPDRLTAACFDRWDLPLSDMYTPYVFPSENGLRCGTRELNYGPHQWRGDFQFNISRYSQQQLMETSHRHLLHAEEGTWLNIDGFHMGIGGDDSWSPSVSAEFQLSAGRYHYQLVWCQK
Sequence of Type-1 angiotensin II receptor (P30556 whole entry): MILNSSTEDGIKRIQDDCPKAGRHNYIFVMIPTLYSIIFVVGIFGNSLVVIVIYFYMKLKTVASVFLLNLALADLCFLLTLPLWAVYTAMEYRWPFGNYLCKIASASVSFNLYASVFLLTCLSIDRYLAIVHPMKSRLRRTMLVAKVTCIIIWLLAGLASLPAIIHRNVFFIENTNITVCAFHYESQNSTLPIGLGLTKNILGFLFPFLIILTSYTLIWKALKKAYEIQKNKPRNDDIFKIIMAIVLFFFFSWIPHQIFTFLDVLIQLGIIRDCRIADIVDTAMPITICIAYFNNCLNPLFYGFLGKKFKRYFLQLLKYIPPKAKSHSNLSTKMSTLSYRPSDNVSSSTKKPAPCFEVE
Sequence of C-C chemokine receptor type 6 (P51684 whole entry): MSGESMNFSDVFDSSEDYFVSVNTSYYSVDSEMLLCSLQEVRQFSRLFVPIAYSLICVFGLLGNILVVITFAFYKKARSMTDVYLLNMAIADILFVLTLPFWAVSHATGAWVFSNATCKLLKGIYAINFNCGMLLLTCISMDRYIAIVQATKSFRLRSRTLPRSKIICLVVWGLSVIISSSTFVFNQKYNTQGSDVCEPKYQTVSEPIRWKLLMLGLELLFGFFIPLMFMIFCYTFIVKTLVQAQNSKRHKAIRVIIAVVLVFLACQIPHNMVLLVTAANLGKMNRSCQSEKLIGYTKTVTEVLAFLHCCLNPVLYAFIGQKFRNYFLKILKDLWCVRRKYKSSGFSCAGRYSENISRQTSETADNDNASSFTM
Sequence of Sphingosine 1-phosphate receptor 1 (P21453 whole entry): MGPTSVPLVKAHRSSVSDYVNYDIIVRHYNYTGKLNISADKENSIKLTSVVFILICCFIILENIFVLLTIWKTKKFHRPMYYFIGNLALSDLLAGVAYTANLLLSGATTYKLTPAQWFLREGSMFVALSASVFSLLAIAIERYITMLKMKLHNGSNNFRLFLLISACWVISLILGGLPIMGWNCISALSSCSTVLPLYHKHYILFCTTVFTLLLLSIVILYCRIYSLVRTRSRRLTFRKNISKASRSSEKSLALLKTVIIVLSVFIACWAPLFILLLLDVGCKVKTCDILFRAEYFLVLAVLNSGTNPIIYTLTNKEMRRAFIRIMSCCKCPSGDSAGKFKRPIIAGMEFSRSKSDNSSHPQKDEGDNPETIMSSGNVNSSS
Sequence of Nonstructural protein 1 (Q194T2 whole entry): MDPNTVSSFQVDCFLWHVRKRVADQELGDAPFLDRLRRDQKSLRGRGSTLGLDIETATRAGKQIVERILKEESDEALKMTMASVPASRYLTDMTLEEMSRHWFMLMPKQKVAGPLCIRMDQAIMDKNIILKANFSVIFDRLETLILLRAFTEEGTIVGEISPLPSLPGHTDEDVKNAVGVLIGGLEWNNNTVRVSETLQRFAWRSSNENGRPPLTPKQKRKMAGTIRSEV
Sequence of Beta Lactamase (Q932Y6 whole entry): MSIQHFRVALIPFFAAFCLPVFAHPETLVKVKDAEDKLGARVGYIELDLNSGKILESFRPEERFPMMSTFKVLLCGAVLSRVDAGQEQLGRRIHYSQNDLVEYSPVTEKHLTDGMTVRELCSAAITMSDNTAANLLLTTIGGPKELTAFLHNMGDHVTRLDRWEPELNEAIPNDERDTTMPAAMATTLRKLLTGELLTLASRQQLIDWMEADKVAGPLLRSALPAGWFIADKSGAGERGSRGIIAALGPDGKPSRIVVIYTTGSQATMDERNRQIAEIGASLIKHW
Sequence of Nucleotide-binding oligomerization domain-containing protein 2 (Q9HC29 whole entry, the tested form may be a part): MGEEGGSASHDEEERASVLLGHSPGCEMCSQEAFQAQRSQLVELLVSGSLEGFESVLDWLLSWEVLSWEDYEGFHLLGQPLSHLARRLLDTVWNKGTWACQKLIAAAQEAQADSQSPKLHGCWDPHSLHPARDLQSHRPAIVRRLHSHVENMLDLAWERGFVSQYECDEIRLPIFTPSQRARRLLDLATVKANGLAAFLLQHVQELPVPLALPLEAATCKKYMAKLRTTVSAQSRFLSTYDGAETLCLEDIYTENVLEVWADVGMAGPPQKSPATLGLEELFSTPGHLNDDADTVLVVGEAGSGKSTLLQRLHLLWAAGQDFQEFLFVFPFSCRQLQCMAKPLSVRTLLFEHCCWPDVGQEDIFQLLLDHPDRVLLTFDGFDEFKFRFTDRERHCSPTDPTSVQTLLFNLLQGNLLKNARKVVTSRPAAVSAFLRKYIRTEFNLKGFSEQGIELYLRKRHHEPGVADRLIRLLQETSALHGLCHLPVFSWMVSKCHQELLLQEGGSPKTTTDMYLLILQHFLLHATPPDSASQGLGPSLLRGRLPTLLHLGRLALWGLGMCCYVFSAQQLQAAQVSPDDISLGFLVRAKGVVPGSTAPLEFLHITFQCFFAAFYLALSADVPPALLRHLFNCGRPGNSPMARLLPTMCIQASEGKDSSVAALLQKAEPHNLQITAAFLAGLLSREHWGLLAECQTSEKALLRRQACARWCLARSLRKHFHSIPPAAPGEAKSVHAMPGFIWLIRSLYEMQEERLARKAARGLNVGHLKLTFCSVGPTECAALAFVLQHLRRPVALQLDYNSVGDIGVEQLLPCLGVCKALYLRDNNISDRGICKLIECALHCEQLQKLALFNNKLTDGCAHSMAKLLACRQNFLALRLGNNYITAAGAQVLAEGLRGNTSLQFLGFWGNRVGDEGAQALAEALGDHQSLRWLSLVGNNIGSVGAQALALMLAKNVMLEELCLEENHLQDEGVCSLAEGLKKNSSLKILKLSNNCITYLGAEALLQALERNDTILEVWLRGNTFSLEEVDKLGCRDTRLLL

In the case of `O=[N+]([O-])c1cnc(Sc2ccncn2)s1`, the EC50 [1] is reported as 4.97 µM (inconclusive), the IC50 [2] is reported as 5.67 µM (active) and the AC50 [3] is reported as 1.49 µM (active). For the same molecule, the EC50 [4] was > 40 µM (inactive), the IC50 [5] was > 49.7 µM (inactive) and the EC50 [6] was 5.64 µM (active). For the same molecule, the EC50 [7] was 8.38 µM (active), the IC50 [8] was 1.72 µM (not active) and the EC50 [9] was 2.21 µM (active). For the same molecule, the IC50 [10] was 1.29 µM (active), the AC50 [11] was 4.35 µM (active) and the EC50 [12] was 4.12 µM (active). The IC50 [13] was 0.86 µM (active) and the IC50 [14] was 15 µM (not active).

In the case of `O=[N+]([O-])c1cc(Cl)cc(/C=N\Nc2ccccn2)c1O`, the EC50 [15] is reported as 3.56 µM (active), the IC50 [16] is reported as > 20 µM (inactive) and the IC50 [17] is reported as > 20 µM (inactive). The IC50 [18] was 3.89 µM (active), the EC50 [19] was 11.8 µM (active) and the IC50 [20] was > 66.6 µM (inactive). For the same molecule, the EC50 [21] was 7.53 µM (active), the AC50 [22] was 40.6 µM (active) and the EC50 [23] was > 350 µM (not active). For the same molecule, the IC50 [24] was 6.12 µM (active), the EC50 [25] was > 20 µM (inactive) and the IC50 [26] was > 66.6 µM (inactive). For the same molecule, the EC50 [27] was 9.12 µM (active), the CC50 [28] was 0.987 µM (active) and the EC50 [29] was 5.6 µM (active). For the same molecule, the IC50 [30] was > 20 µM (inactive), the IC50 [31] was > 20 µM (inactive) and the CC50 [32] was 0.147 µM (active). For the same molecule, the AC50 [33] was 4.49 µM (active), the AC50 [11] was 0.964 µM (active) and the EC50 [34] was 11.1 µM (active). The EC50 [35] was 0.204 µM (active) and the CC50 [36] was 1.24 µM (active).
